Source: ChEMBL document CHEMBL5046289, “Targeting the S2 Subsite Enables the Structure-Based Discovery of Novel Highly Selective Factor XIa Inhibitors” (J Med Chem, 2022)
Active and inactive are the calls of the source. The calls are words filed in the database; no cut-off is given here.

Columns and labels:
[1] = target: T1, Coagulation factor XI (Homo sapiens, UniProt P03951); assay: Inhibition of coagulation factor XIa (unknown origin) assessed as chromogenic substrate hydrolysis using CS-21(66) as substrate incubated for 1 hr by spectrophotometer based microplate reader method
[2] = organism: Homo sapiens; assay: Selectivity index, ratio of IC50 for plasma kallikrein (unknown origin) to IC50 for coagulation factor XIa (unknown origin)
[3] = target: Coagulation factor IX (Homo sapiens) (UniProt P00740); assay: Inhibition of coagulation factor IXa (unknown origin) assessed as chromogenic substrate using ADG299 as substrate at 1 mM incubated for 1 hr by spectrophotometer based microplate reader method
[4] = target: T2, Coagulation factor VII (Homo sapiens) (UniProt P08709); assay: Inhibition of coagulation factor VIIa (unknown origin) assessed as chromogenic substrate using chromozyme t-PA as substrate at 1 mM incubated for 1 hr by spectrophotometer based microplate reader method
T2 sequence (whole entry): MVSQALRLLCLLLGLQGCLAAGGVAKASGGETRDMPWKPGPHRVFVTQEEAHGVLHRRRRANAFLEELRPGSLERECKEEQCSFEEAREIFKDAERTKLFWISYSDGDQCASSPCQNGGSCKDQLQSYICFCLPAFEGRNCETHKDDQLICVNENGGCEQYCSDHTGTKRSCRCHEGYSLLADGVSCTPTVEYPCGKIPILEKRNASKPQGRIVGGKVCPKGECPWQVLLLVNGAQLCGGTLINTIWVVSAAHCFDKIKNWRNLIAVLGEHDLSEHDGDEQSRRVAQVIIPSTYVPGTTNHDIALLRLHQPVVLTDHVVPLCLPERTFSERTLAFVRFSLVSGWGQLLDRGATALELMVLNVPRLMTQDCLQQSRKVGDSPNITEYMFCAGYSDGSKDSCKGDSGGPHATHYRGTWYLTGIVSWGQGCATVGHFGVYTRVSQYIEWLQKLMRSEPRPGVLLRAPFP

[5] = target: Serine protease 1 (Homo sapiens) (UniProt P07477); assay: Inhibition of trypsin (unknown origin) assessed as chromogenic substrate using CS-11(22) as substrate at 1 mM incubated for 1 hr by spectrophotometer based microplate reader method
[6] = target: Prothrombin (Homo sapiens, UniProt P00734); assay: Inhibition of thrombin (unknown origin) assessed as chromogenic substrate using CS-10(38) as substrate incubated for 1 hr by spectrophotometer based microplate reader method
[7] = organism: Homo sapiens; assay: Selectivity index, ratio of IC50 for coagulation factor Xa (unknown origin) to IC50 for coagulation factor XIa (unknown origin)
[8] = organism: Homo sapiens; assay: Selectivity index, ratio of IC50 for coagulation factor XIIa (unknown origin) to IC50 for coagulation factor XIa (unknown origin)
[9] = organism: Homo sapiens; assay: Selectivity index, ratio of IC50 for coagulation factor IXa (unknown origin) to IC50 for coagulation factor XIa (unknown origin)
[10] = organism: Homo sapiens; assay: Selectivity index, ratio of IC50 for coagulation factor VIIa (unknown origin) to IC50 for coagulation factor XIa (unknown origin)
[11] = organism: Homo sapiens; assay: Selectivity index, ratio of IC50 for trypsin (unknown origin) to IC50 for coagulation factor XIa (unknown origin)
[12] = test system: Plasma; assay: Anticoagulant activity in mouse platelet-poor plasma assessed as increase in prothrombin time at 3.8 to 210 ug/ml incubated for 3 mins by coagulometer analysis; type: functional, cell-free; conditions: dose 3.8-210 µg/ml
[13] = test system: Plasma; assay: Anticoagulant activity in mouse platelet-poor plasma assessed as increase in activated partial thromboplastin time at 22 ug/ml incubated for 3 mins by coagulometer analysis; type: functional, cell-free; conditions: dose 22.0 µg/ml
[14] = Half life in Sprague-Dawley rat at 10 mg/kg, iv after 0.083 to 24 hrs by LC-MS/MS analysis; type: ADME, organism-based; conditions: in vivo, time 0.083-24 hrs
[15] = Cmax in Sprague-Dawley rat at 10 mg/kg, iv after 0.083 to 24 hrs by LC-MS/MS analysis; type: ADME, organism-based; set-up: route intravenous, dose 10 mg/kg, time upper 24 hrs, time lower 0.083 hrs; conditions: in vivo
[16] = Clearance in Sprague-Dawley rat at 10 mg/kg, iv after 0.083 to 24 hrs by LC-MS/MS analysis; type: ADME, organism-based; conditions: in vivo, time 0.083-24 hrs
[17] = AUC(0 to infinity) in Sprague-Dawley rat at 10 mg/kg, iv after 0.083 to 24 hrs by LC-MS/MS analysis; type: ADME, organism-based; set-up: route intravenous, dose 10 mg/kg, time upper 24 hrs, time lower 0.083 hrs; conditions: in vivo
[18] = Apparent volume of distribution in Sprague-Dawley rat at 10 mg/kg, iv after 0.083 to 24 hrs by LC-MS/MS analysis; type: ADME, organism-based; conditions: in vivo, time 0.083-24 hrs, read-out: Vz
[19] = MRT(0 to t) in Sprague-Dawley rat at 10 mg/kg, iv after 0.083 to 24 hrs by LC-MS/MS analysis; type: ADME, organism-based; conditions: in vivo, time 0.083-24 hrs
[20] = test system: Mus musculus; assay: Antithrombotic activity against FeCl3-induced carotid artery thrombosis C57BL/6J mouse model assessed as prolongation of occlusion time pretreated at 19.5 mg/kg, iv tail vein injection for 10 mins followed by FeCl3 addition for 3 mins and measured after 30 mins; type: functional, organism-based; conditions: time 43.0 min
[21] = test system: Mus musculus; assay: Antithrombotic activity in C57BL/6J mouse model of FeCl3-induced carotid artery thrombosis assessed as time of occlusion pretreated at 6.5 mg/kg for 10 mins followed by FeCl3 addition for 3 mins and measured after 30 mins; type: functional, organism-based
[22] = Acute toxicity in ICR mouse assessed as histological change in spleen at 50 to 100 mg/kg, iv as single dose for 14 days by H and E staining method; type: organism-based; conditions: in vivo, 336 h, dose 50-100 mg/kg, time 14 day
[23] = Acute toxicity in ICR mouse assessed as histological change in lung at 50 to 100 mg/kg, iv as single dose for 14 days by H and E staining method; type: organism-based; conditions: in vivo, 336 h, dose 50-100 mg/kg, time 14 day
[24] = Acute toxicity in ICR mouse assessed as histological change in heart at 50 to 100 mg/kg, iv as single dose for 14 days by H and E staining method; type: organism-based; conditions: in vivo, 336 h, dose 50-100 mg/kg, time 14 day
[25] = Acute toxicity in ICR mouse assessed as histological change in liver at 50 to 100 mg/kg, iv as single dose for 14 days by H and E staining method; type: organism-based; conditions: in vivo, 336 h, dose 50-100 mg/kg, time 14 day
[26] = Acute toxicity in ICR male mouse assessed as effect on weight loss at 50 to 100 mg/kg, iv as single dose for 14 days; type: organism-based; conditions: in vivo, 336 h, dose 50-100 mg/kg, time 14 day
[27] = Toxicity in C57BL/6J mouse assessed as bleeding risk at 19.5 to 39 mg/kg, iv measured after 15 mins by tail transection assay; type: organism-based; conditions: in vivo, 0.25 h, dose 19.5-39 mg/kg
[28] = Toxicity in C57BL/6J mouse assessed as bleeding risk at 20 mg/kg, iv measured after 15 mins by tail transection assay; type: organism-based; conditions: in vivo, 0.25 h
[29] = Toxicity in C57BL/6J mouse assessed as bleeding risk at 35 mg/kg, iv measured after 15 mins by tail transection assay; type: organism-based; conditions: in vivo, 0.25 h
[30] = Toxicity in C57BL/6J mouse assessed as bleeding risk at 60 to 100 mg/kg, iv measured after 15 mins by tail transection assay; type: organism-based; conditions: in vivo, 0.25 h, dose 60-100 mg/kg
[31] = target: T1, Coagulation factor XI; conditions: dose 50.0 nM, time 1.0 hrs

T1 sequence (P03951 19-387 limits assumed): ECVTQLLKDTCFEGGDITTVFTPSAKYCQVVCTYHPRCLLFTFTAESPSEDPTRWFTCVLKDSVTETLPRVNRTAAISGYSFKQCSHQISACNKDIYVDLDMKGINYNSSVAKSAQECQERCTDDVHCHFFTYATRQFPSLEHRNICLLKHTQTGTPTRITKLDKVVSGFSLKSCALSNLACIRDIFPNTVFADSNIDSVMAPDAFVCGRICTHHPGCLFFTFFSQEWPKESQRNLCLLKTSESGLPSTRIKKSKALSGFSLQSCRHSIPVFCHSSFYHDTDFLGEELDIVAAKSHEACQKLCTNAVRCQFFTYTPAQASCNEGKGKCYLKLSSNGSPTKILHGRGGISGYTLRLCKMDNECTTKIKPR
T1 sequence (P03951 388-625 limits assumed): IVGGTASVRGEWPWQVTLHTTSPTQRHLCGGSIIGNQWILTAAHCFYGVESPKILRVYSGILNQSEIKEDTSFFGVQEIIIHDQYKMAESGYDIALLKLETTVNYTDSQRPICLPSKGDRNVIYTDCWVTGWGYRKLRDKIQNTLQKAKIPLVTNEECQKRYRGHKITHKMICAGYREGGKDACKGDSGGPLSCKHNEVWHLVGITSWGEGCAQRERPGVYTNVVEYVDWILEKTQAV
Serine protease 1 (Homo sapiens), sequence (P07477 whole entry): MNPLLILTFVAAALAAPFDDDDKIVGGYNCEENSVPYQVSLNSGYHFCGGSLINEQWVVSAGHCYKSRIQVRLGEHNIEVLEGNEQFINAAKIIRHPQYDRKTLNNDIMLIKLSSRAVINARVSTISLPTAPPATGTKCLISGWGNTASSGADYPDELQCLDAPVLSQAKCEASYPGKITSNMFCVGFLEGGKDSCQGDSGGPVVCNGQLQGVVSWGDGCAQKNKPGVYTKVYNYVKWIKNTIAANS
Coagulation factor IX (Homo sapiens), sequence (P00740 47-191 limits assumed): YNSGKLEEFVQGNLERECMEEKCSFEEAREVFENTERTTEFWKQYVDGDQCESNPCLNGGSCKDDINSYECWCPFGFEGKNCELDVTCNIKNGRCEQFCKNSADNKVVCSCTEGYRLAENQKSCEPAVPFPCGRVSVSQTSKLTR
Coagulation factor IX (Homo sapiens), sequence (P00740 227-461 limits assumed): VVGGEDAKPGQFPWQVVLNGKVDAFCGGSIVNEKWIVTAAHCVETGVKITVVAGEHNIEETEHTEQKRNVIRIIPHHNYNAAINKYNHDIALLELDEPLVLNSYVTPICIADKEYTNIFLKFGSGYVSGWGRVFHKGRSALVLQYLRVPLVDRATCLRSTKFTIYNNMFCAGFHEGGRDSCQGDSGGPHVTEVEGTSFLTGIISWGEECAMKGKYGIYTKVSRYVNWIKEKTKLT

In the case of `O=C(/C=C/c1cc(Cl)ccc1-n1cnnn1)N[C@@H](CC(=O)N1CCN(c2ccccc2)CC1)C(=O)Nc1ccc(C(=O)O)cc1`, the IC50 [1] is reported as 0.0142 µM, the Ratio IC50 [2] is reported as 1960 and the inhibition [3] is reported as “inactive”. The inhibition [4] was “inactive”, the inhibition [5] was “inactive” and the IC50 [6] was 460 µM. The Ratio IC50 [7] was greater than 5000, the Ratio IC50 [8] was greater than 5000 and the Ratio IC50 [9] was greater than 5000. For the same compound, the Ratio IC50 [10] was greater than 5000, the Ratio IC50 [11] was greater than 5000 and the Activity [12] was “inactive”. For the same compound, the Activity [13] was “Active”, the half-life [14] was 75.6 min and the Cmax [15] was 57 µg/mL. For the same compound, the clearance [16] was 9.22 mL/min/kg, the AUC(0-inf) [17] was 18400 ng·h/mL and the Vd [18] was 0.969 L/kg. For the same compound, the MRT last [19] was 19.2 min, the Activity [20] was “Active” and the Activity [21] was “inactive”. For the same compound, the Activity [22] was “Non-Toxic”, the Activity [23] was “Non-Toxic” and the Activity [24] was “Non-Toxic”. The Activity [25] was “Non-Toxic”, the Activity [26] was “Non-Toxic” and the Activity [27] was “Non-Toxic”. The Activity [28] was “Non-Toxic”, the Activity [29] was “Non-Toxic” and the Activity [30] was “Non-Toxic”. It also gave an inhibition [31] of 59.4%.
